# Laboratory results: US10827945B2, “Radiologically identified tumor habitats” (H. LEE MOFFITT CANCER CENTER AND RESEARCH INSTITUTE, INC., priority 2014, dated 2020)
# How the values were obtained:
# [1] = tested on: soft tissue sarcomas (STS); settings: across all histological sub-types of STS; cited from earlier work
# [2] = tested on: osteosarcoma xenotransplants; assay: Osteosarcoma xenotransplant models, ADC (diffusion MRI) and tumor response; type: in vivo, mouse; settings: for anti-tumor response: osteosarcoma xenotransplants; for shift of ADC histograms: within 48 hr following treatment
# Description: Combined MRI and histology image analyses were used to examine effects of dasatinib+Tcn in a Ewings sarcoma model; and the response to a novel Wee-1 checkpoint inhibitor, MK1775, alone and in combination with gemcitabine in osteosarcoma xenotransplants [Kreahling J M, et al. Mol Cancer Ther. 2012 11(1):174-82; Kreahling J M, et al. PloS one. 2013 8(3):e57523]. In the Ewing's model, the pre-therapy spin-echo T2 and post-therapy response of ADC were compared to tumor volume changes.
# In the osteosarcoma xenotransplant models, the change in ADC was measured following treatment with gemcitabine and the wee-1 inhibitor MK-1775, alone and in combination. […] The change in ADC was highly correlated with tumor growth rate response. Also, the shapes of the histograms changed with response, going from Gaussian to a log-normal distributions, with increased skewness.
# At a deeper level of analysis, the ADC maps were analyzed for image entropy, which is calculated as the randomness of a 3×3 pixel matrix surrounding the pixel under test (P-U-T).
# [3] = tested on: regions of profound hypoxia; settings: cited from earlier work
# [4] = tested on: orthotopically implanted Su.86.86 PDAC cells; assay: DCE-MRI/diffusion MRI in orthotopically implanted Su.86.86 PDAC; type: in vivo; settings: orthotopic Su.86.86
# Description: (§1) In a parallel study, DCE-MRI and Diffusion MRI were investigated as response biomarkers to TH-302 in flank implanted MiaPaCa2 pancreatic adenocarcinoma (PDAC) models. […] 2012 30(7):1002-9]. In a follow-on study, orthotopically implanted Hs766t, MiaPaCa2 and Su.86.86 PDAC cells were used, which have differential sensitivities to TH-302 as monotherapy.
# [5] = tested on: orthotopically implanted Hs766t PDAC cells; assay: DCE-MRI/diffusion MRI in orthotopically implanted Hs766t PDAC; type: in vivo; settings: orthotopic Hs766t
# Description: as §1
# [6] = based on phase I data; cited from earlier work
# [7] = tested on: flank implanted MiaPaCa2 pancreatic adenocarcinoma (PDAC); settings: cited from earlier work
# [8] = tested on: orthotopically implanted MiaPaCa2 PDAC cells; assay: DCE-MRI/diffusion MRI in orthotopically implanted MiaPaCa2 PDAC; type: in vivo; settings: orthotopic MiaPaCa2
# Description: as §1
# [9] = tested on: tumors in KPC mice; settings: KPC (KrasG12D; p53R172H; Pdx1-Cre) GEMM; cited from earlier work
structure (smiles),measurement,setting,value
"COc1cccc2c1C(=O)c1c(O)c3c(c(O)c1C2=O)C[C@@](O)(C(=O)CO)C[C@@H]3O[C@H]1C[C@H](N)[C@H](O)[C@H](C)O1 [DOX, doxorubicin]",response rate,[1],25-40%
C=CCn1c(=O)c2cnc(Nc3ccc(N4CCN(C)CC4)cc3)nc2n1-c1cccc(C(C)(C)O)n1 [MK-1775],anti-tumor response,[2],non-responsive
same,anti-tumor response,[2]; listed as MK1775,did not
same,shift of ADC histograms,[2],not
Cn1c(COP(=O)(NCCBr)NCCBr)cnc1[N+](=O)[O-] [TH-302],pO2 at which the warhead is released,[3],< 10 mm Hg
same,Ktrans in response to treatment,[4],not
same,mean ADC,[4],no changes
same,sensitivity as monotherapy,[4],resistant
same,Ktrans in response to treatment,[5],decreases
same,mean ADC,[5],no changes
same,sensitivity as monotherapy,[5],responsive
same,tolerability,[6],well-tolerated
same,ADC (diffusion MRI),[7]; at any time point,no differences
same,Ktrans (DCE-MRI),"[7]; initial change, strongly correlated with tumor control",drop
same,Ktrans in response to treatment,[8],decreases
same,mean ADC,[8],no changes
same,sensitivity as monotherapy,[8],responsive
Nc1ccn([C@@H]2O[C@H](CO)[C@@H](O)C2(F)F)c(=O)n1 [gemcitabine],change in average ADC-entropy values from pre-treatment,[2]; compared to controls (p=0.022) and MK1775 (p=0.023),statistically larger variations in ADC values
same,anti-tumor response,[2],robust anti-tumor response
same,anti-tumor response,[2]; listed as Gem,responded to therapy
same,shift of ADC histograms,[2],shifted to the right
same,sensitivity of tumors,[9],generally resistant
